Experimental findings from patent US20110224231A1, “Novel Lactams as Beta Secretase Inhibitors” (Pfizer Inc., priority 2008, published 2011) are described below.

SMILES strings stand for the structures.

This assay deals with T1, soluble human BACE (Homo sapiens, UniProt P56817).
T1 construct: cells secreting human recombinant soluble BACE; made in house; conditioned medium
Kind of assay: BACE activity Cell Free Assay (ELISA of cleaved synthetic APP substrate). It counts as biochemical. The procedure: A synthetic APP substrate that can be cleaved by beta˜secretase and having N-terminal biotin is used to assay beta-secretase activity in the presence or absence of the inhibitory compounds. […] The substrate and test compounds are added to 384 well polypropylene plates. The reaction is initiated by the addition of soluble BACE enzyme to a final volume of 12.5 μL per well. The final assay conditions are: 0.001˜300 μM compound inhibitor, 0.05M sodium acetate (pH 4.5), 3 μM substrate, soluble human BACE, and 2% DMSO. Concentrated conditioned media from cells secreting human recombinant soluble BACE was titrated to provide a source of BACE enzyme. The cell media can be used as either a crude BACE prep or BACE can be purified using any number of techniques, including immobilized BACE inhibitor purification columns. The assay mixture is incubated for 1 hour at 37° C., and the reaction is quenched by the addition of an equal volume of 0.1M Tris, pH 8. Half of the quenched mix is incubated on clear streptavidin coated 384 well polystyrene plates for 1 hour. An ELISA is then performed using an in˜house antibody that specifically recognizes the new C˜terminus created after cleavage by BACE. […] (These polyclonal antibodies were raised in rabbits by immunizing with antigen comprised of six amino acid residues present at the carboxy terminus of the wild-type soluble APPbeta sequence (NH2-ISEVKM-COOH) or seven amino acid residues present at the carboxy terminus of the Swedish mutation at the beta cleavage site (NH2-EISEVNL˜COOH) conjugated to keyhole limpet hemacyanin by methods known to those skilled in the art.) A secondary anti˜species Horseradish Peroxidase (HRP) conjugated antibody is then utilized. The readout, following assay development with TMB substrate and quenching with 0.09M sulfuric acid, is absorbance at 450 nm.
For orientation: ELISA stands for enzyme-linked immunosorbent assay.

T1 sequence (P56817 46-457 limits assumed): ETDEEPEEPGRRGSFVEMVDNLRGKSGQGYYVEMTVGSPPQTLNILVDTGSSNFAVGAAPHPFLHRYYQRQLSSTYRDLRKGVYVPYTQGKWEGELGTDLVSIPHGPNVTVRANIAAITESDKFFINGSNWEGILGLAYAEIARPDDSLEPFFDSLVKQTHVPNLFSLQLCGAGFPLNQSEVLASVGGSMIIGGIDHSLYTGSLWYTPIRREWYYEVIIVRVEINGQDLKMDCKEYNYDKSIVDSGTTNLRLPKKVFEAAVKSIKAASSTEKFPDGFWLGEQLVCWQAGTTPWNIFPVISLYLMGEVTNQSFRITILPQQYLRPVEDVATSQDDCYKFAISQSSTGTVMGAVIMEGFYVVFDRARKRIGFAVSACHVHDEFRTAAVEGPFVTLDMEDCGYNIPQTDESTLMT

One may read the IC50 as the point on the concentration scale where inhibition reaches its midpoint. Low readings indicate greater potency, high ones weaker potency. The molecule `CC(C)NS(=O)(=O)c1cccc(CN2CCC3(C=CC(=O)N3c3cccc(F)c3)CC2C)c1` (racemic) [Example 28, Racemic 3-{[(5R,7S),(5S,7R)-1-(3-fluorophenyl)-7-methyl-2-oxo-1,8-diazaspiro[4.5]dec-3-en-8-yl]methyl}-N-isopropylbenzenesulfonamide] registered an IC50 of 10 to 100 µM. The figure for `CC1CC2(C=CC(=O)N2c2cccc(F)c2)CCN1Cc1cccc(Oc2ccc(Cl)cc2)c1` (racemic) [Example 29, Racemic (5R,7S),(5S,7R)-8-[3-(4-chlorophenoxy)benzyl]-1-(3-fluorophenyl)-7-methyl-1,8-diazaspiro[4.5]dec-3-en-2-one] is 10 to 100 µM; for `CC1CC2(C=CC(=O)N2c2cccc(F)c2)CCN1Cc1cccc(-c2ccc(C(F)(F)F)cn2)c1` (racemic) [Example 30, Racemic (5R,7S),(5S,7R)-1-(3-fluorophenyl)-7-methyl-8-{3-[5-(trifluoromethyl)pyridin-2-yl]benzyl}-1,8-diazaspiro[4.5]dec-3-en-2-one] it is 100 to 300 µM; for `CCNc1ccc(CN2CCC3(C=CC(=O)N3c3cccc(F)c3)CC2C)cn1` (racemic) [Example 31, Racemic (5R,7S),(5S,7R)-8-{[6-(ethylamino)pyridin-3-yl]methyl}-1-(3-fluorophenyl)-7-methyl-1,8-diazaspiro[4.5]dec-3-en-2-one] it is 100 to 300 µM.

As to `CCCNc1ccc(CN2CCC3(C=CC(=O)N3c3cccc(F)c3)CC2C)cn1` (racemic) [Example 32, Racemic (5R,7S),(5S,7R)-1-(3-fluorophenyl)-7-methyl-8-{[6-(propylamino)pyridin-3-yl]methyl}-1,8-diazaspiro[4.5]dec-3-en-2-one], the half-maximal inhibitory concentration (IC50) lay within 100 to 300 µM.

`CCOc1cccc(CN2CCC3(CCC(=O)N3c3cccc(F)c3)CC2C)c1` (racemic) [Example 33, Racemic (5R,7S),(5S,7R)-8-(3-ethoxybenzyl)-1-(3-fluorophenyl)-7-methyl-1,8-diazaspiro[4.5]decan-2-one] showed an IC50 of 100 to 300 µM.

For the molecule `Cc1ccc(Oc2cccc(CN3CCC4(CCC(=O)N4c4cccc(F)c4)CC3C)c2)cc1` (racemic) [Example 34, Racemic (5R,7S),(5S,7R)-1-(3-fluorophenyl)-7-methyl-8-[3-(4-methylphenoxy)benzyl]-1,8-diazaspiro[4.5]decan-2-one], the IC50 was 10 to 100 µM. Turning to `COc1ccc(Oc2cccc(CN3CCC4(CCC(=O)N4c4cccc(F)c4)CC3C)c2)cc1` (racemic) [Example 35, Racemic (5R,7S),(5S,7R)-1-(3-fluorophenyl)-8-[3-(4-methoxyphenoxy)benzyl]-7-methyl-1,8-diazaspiro[4.5]decan-2-one], the concentration for half-maximal inhibition (IC50) fell in the range of 10 to 100 µM. Then `CC1CC2(CCC(=O)N2c2cccc(F)c2)CCN1Cc1cccc(S(=O)(=O)N2CCCC2)c1` (racemic) [Example 36, Racemic (5R,7S),(5S,7R)-1-(3-fluorophenyl)-7-methyl-8-[3-(pyrrolidin-1-ylsulfonyl)benzyl]-1,8-diazaspiro[4.5]decan-2-one], with 100 to 300 µM; and `CC1CC2(CCC(=O)N2c2cccc(F)c2)CCN1Cc1ccc(O)cc1` (racemic) [Example 37, Racemic (5R,7S),(5S,7R)-1-(3-fluorophenyl)-8-(4-hydroxybenzyl)-7-methyl-1,8-diazaspiro[4.5]decan-2-one], with 10 to 100 µM. The figure for `Cc1cc(CN2CCC3(CCC(=O)N3c3cccc(F)c3)CC2C)ccc1O` (racemic) [Example 38, Racemic (5R,7S),(5S,7R)-1-(3-fluorophenyl)-8-(4-hydroxy-3-methylbenzyl)-7-methyl-1,8-diazaspiro[4.5]decan-2-one] is 10 to 100 µM; for `CCCn1nccc1CN1CCC2(CCC(=O)N2c2cccc(F)c2)CC1C` (racemic) [Example 39, Racemic (5R,7S),(5S,7R)-1-(3-fluorophenyl)-7-methyl-8-[(1-propyl-1H-pyrazol-5-yl)methyl]-1,8-diazaspiro[4.5]decan-2-one] it is 100 to 300 µM. In turn, `CC1CC2(CCC(=O)N2c2cccc(F)c2)CCN1Cc1ccc2[nH]ccc2c1` (racemic) [Example 40, Racemic (5R,7S),(5S,7R)-1-(3-fluorophenyl)-8-(1H-indol-5-ylmethyl)-7-methyl-1,8-diazaspiro[4.5]decan-2-one] displayed an IC50 of 100 to 300 µM.

The molecule `CC1CC2(CCC(=O)N2c2cccc(F)c2)CCN1Cc1ccc(O)c(C#N)c1` (racemic) [Example 41, Racemic (5R,7S),(5S,7R)-1(3-fluorophenyl)-7-methyl-2-oxo-1,8-diazaspiro[4.5]dec-8-yl]methyl}-2-hydroxybenzonitrile] displayed an IC50 of 10 to 100 µM. Then `COc1cc(CN2CCC3(CCC(=O)N3c3cccc(F)c3)CC2C)ccc1O` (racemic) [Example 42, Racemic (5R,7S),(5S,7R)-1-(3-fluorophenyl)-8-(4-hydroxy-3-methoxybenzyl)-7-methyl-1,8-diazaspiro[4.5]decan-2-one], with 10 to 100 µM; and `COc1ccc(F)c(CN2CCC3(CCC(=O)N3c3cccc(F)c3)CC2C)c1` (racemic) [Example 43, Racemic (5R,7S),(5S,7R)-8-(2-fluoro-5-methoxybenzyl)-1-(3-fluorophenyl)-7-methyl-1,8-diazaspiro[4.5]decan-2-one], with 100 to 300 µM. Then `CC1CC2(CCC(=O)N2c2cccc(F)c2)CCN1Cc1ccc(O)c(Cl)c1` (racemic) [Example 44, Racemic (5R,7S),(5S,7R)-8-(3-chloro-4-hydroxybenzyl)-1-(3-fluorophenyl)-7-methyl-1,8-diazaspiro[4.5]decan-2-one], with 10 to 100 µM.

For the molecule `CC(C)Oc1cccc(CN2CC[C@]3(CCC(=O)N3c3cccc(F)c3)C[C@@H]2C)c1` (racemic) [Example 45, Racemic (5R,7S),(5S,7R)-1-(3-fluorophenyl)-8-(3-isopropoxybenzyl)-7-methyl-1,8-diazaspiro[4.5]decan-2-one], the IC50 was 10 to 100 µM. The figure for `CCCOc1cccc(CN2CCC3(CCC(=O)N3c3cccc(F)c3)CC2C)c1` (racemic) [Example 46, Racemic (5R,7S),(5S,7R)-1-(3-fluorophenyl)-7-methyl-8-(3-propoxybenzyl)-1,8-diazaspiro[4.5]decan-2-one] is 10 to 100 µM; for `CCCCOc1cccc(CN2CCC3(CCC(=O)N3c3cccc(F)c3)CC2C)c1` (racemic) [Example 47, Racemic (5R,7S),(5S,7R)-8-(3-butoxybenzyl)-1-(3-fluorophenyl)-7-methyl-1,8-diazaspiro[4.5]decan-2-one] it is 100 to 300 µM. Then `CC(C)COc1cccc(CN2CCC3(CCC(=O)N3c3cccc(F)c3)CC2C)c1` (racemic) [Example 48, Racemic (5R,7S),(5S,7R)-1-(3-fluorophenyl)-8-(3-isobutoxybenzyl)-7-methyl-1,8-diazaspiro[4.5]decan-2-one], with 100 to 300 µM.

With `CC1CC2(CCC(=O)N2c2cccc(F)c2)CCN1Cc1cccc(-c2cccnc2)c1` (racemic) [Example 49, Racemic (5R,7S),(5S,7R)-1-(3-fluorophenyl)-7-methyl-8-(3-pyridin-3-ylbenzyl)-1,8-diazaspiro[4.5]decan-2-one], the IC50 lay in the range of 100 to 300 µM.

`CC1CC2(CCC(=O)N2c2cccc(F)c2)CCN1Cc1cccc(OC2CCCC2)c1` (racemic) [Example 50, Racemic (5R,7S),(5S,7R)-8-[3-(cyclopentyloxy)benzyl]-1-(3-fluorophenyl)-7-methyl-1,8-diazaspiro[4.5]decan-2-one]: the IC50 was in the range of 100 to 300 µM. `Cc1ccncc1-c1cccc(CN2CCC3(CCC(=O)N3c3cccc(F)c3)CC2C)c1` (racemic) [Example 51, Racemic (5R,7S),(5S,7R)-1-(3-fluorophenyl)-7-methyl-8-[3-(4-methylpyridin-3-yl)benzyl]-1,8-diazaspiro[4.5]decan-2-one]: the IC50 lay within 10 to 100 µM.

In the case of `CC1CC2(CCC(=O)N2c2cccc(F)c2)CCN1Cc1cccc(Oc2ccccc2)c1` (racemic) [Example 52, Racemic (5R,7S),(5S,7R)-1-(3-fluorophenyl)-7-methyl-8-(3-phenoxybenzyl)-1,8-diazaspiro[4.5]decan-2-one], the IC50 lay within 10 to 100 µM.

For `CC1CC2(CCC(=O)N2c2cccc(F)c2)CCN1Cc1cc(Br)ccc1F` (racemic) [Example 53, Racemic (5R,7S),(5S,7R)-8-(5-bromo-2-fluorobenzyl)-1-(3-fluorophenyl)-7-methyl-1,8-diazaspiro[4.5]decan-2-one], the IC50 was 100 to 300 µM. Then `CC1CC2(CCC(=O)N2c2cccc(F)c2)CCN1Cc1nc(-c2ccc(C#N)cc2)cs1` (racemic) [Example 54, Racemic 4-(2-{[(5R,7S),(5S,7R)-1-(3-fluorophenyl)-7-methyl-2-oxo-1,8-diazaspiro[4.5]dec-8-yl]methyl}-1,3-thiazol-4-yl)benzonitrile], with 100 to 300 µM. The figure for `CC1CC2(CCC(=O)N2c2cccc(F)c2)CCN1Cc1cccc(Oc2ccc(Cl)cc2)c1` (racemic) [Example 55, Racemic (5R,7S),(5S,7R)-8-[3-(4-chlorophenoxy)benzyl]-1-(3-fluorophenyl)-7-methyl-1,8-diazaspiro[4.5]decan-2-one] is 10 to 100 µM.
